Series [1] concerns the target T1, P. stipitis XR (xylose reductase, XYL1) (Scheffersomyces stipitis, UniProt P31867).
T1 construct: native full-length XYL1 from plasmid pY7, chromosomally integrated in S. cerevisiae TMB 3044 (gre3 deleted); crude cell extract
Nature of the series: NAD(P)H absorbance at […] nm, initial rates fitted to compulsory-order ternary-complex equation. Conditions: crude extract, xylose co-substrate varied, pH 7.0 triethanolamine, 30°C; kinetic dissociation constant; read-out: KiA. The class given is biochemical.

The target of series [2] is T2, P. stipitis XR (xylose reductase, XYL1) (Scheffersomyces stipitis, UniProt P31867, K270R).
T2 construct: native full-length XYL1 from plasmid pY7, chromosomally integrated in S. cerevisiae TMB 3044 (gre3 deleted); crude cell extract
The description is as above. As to conditions: crude extract, xylose co-substrate varied, pH 7.0 triethanolamine, 30°C; kinetic dissociation constant; read-out: KiA. The class given is biochemical.

The target in series [3] is T3, P. stipitis XR (xylose reductase, XYL1) (Scheffersomyces stipitis, UniProt P31867, K270M).
T3 construct: native full-length XYL1 from plasmid pY7, chromosomally integrated in S. cerevisiae TMB 3044 (gre3 deleted); crude cell extract
The series is described as above. It is filed as biochemical. As to conditions: crude extract, xylose co-substrate varied, pH 7.0 triethanolamine, 30°C; kinetic dissociation constant; read-out: KiA.

Substrate in series [4]: NC(=O)C1=CN([C@@H]2O[C@H](COP(=O)(O)OP(=O)(O)OC[C@H]3O[C@@H](n4cnc5c(N)ncnc54)[C@H](O)[C@@H]3O)[C@@H](O)[C@H]2O)C=CC1
Nature of the series: cells, lysate or membranes. The class given is biochemical, Scheffersomyces stipitis. As to conditions: crude extract, xylose co-substrate varied, pH 7.0 triethanolamine, 30°C, varied: cofactor.

Substrate in series [5]: NC(=O)C1=CN([C@@H]2O[C@H](COP(=O)(O)OP(=O)(O)OC[C@H]3O[C@@H](n4cnc5c(N)ncnc54)[C@H](OP(=O)(O)O)[C@@H]3O)[C@@H](O)[C@H]2O)C=CC1
Nature of the series: cells, lysate or membranes. Conditions: crude extract, xylose co-substrate varied, pH 7.0 triethanolamine, 30°C, varied: cofactor. It is filed as biochemical, Scheffersomyces stipitis.

With `NC(=O)C1=CN([C@@H]2O[C@H](COP(=O)(O)OP(=O)(O)OC[C@H]3O[C@@H](n4cnc5c(N)ncnc54)[C@H](O)[C@@H]3O)[C@@H](O)[C@H]2O)C=CC1` [NADH], the Kd in series [1] was 25.9 ± 11.7 µM; in series [2] it was 57.4 ± 34.9 µM.
Turning to `NC(=O)C1=CN([C@@H]2O[C@H](COP(=O)(O)OP(=O)(O)OC[C@H]3O[C@@H](n4cnc5c(N)ncnc54)[C@H](OP(=O)(O)O)[C@@H]3O)[C@@H](O)[C@H]2O)C=CC1` [NADPH], the Kd in series [1] was found to be 1.4 ± 1.2 µM; in series [3] it was 293 ± 169 µM; in series [2], 22.9 ± 17.6 µM.

B1: P. stipitis XR (xylose reductase, XYL1) (Scheffersomyces stipitis CBS 6054) (protein)
chain: MPSIKLNSGYDMPAVGFGCWKVDVDTCSEQIYRAIKTGYRLFDGAEDYANEKLVGAGVKKAIDEGIVKREDLFLTSKLWNNYHHPDNVEKALNRTLSDLQVDYVDLFLIHFPVTFKFVPLEEKYPPGFYCGKGDNFDYEDVPILETWKALEKLVKAGKIRSIGVSNFPGALLLDLLRGATIKPSVLQVEHHPYLQQPRLIEFAQSRGIAVTAYSSFGPQSFVELNQGRALNTSPLFENETIKAIAAKHGKSPAQVLLRWSSQRGIAIIPKSNTVPRLLENKDVNSFDLDEQDFADIAKLDINLRFNDPWDWDKIPIFV
notes: native full-length XYL1 from plasmid pY7, chromosomally integrated in S. cerevisiae TMB 3044 (gre3 deleted); crude cell extract
In the case of B1, the figures for the Michaelis-Menten constant (Km) in series [4] and in series [5] were 28.7 ± 5.4 µM and 1.0 ± 0.6 µM, respectively.

B2: P. stipitis XR (xylose reductase, XYL1) (Scheffersomyces stipitis CBS 6054; K270M) (protein)
chain: MPSIKLNSGYDMPAVGFGCWKVDVDTCSEQIYRAIKTGYRLFDGAEDYANEKLVGAGVKKAIDEGIVKREDLFLTSKLWNNYHHPDNVEKALNRTLSDLQVDYVDLFLIHFPVTFKFVPLEEKYPPGFYCGKGDNFDYEDVPILETWKALEKLVKAGKIRSIGVSNFPGALLLDLLRGATIKPSVLQVEHHPYLQQPRLIEFAQSRGIAVTAYSSFGPQSFVELNQGRALNTSPLFENETIKAIAAKHGKSPAQVLLRWSSQRGIAIIPMSNTVPRLLENKDVNSFDLDEQDFADIAKLDINLRFNDPWDWDKIPIFV
notes: as for B1
B2: in series [5], the Km – broadly, the substrate concentration at which the rate is half of its maximum – is 290 ± 78.6 µM.

B3: P. stipitis XR (xylose reductase, XYL1) (Scheffersomyces stipitis CBS 6054; K270R) (protein)
chain: MPSIKLNSGYDMPAVGFGCWKVDVDTCSEQIYRAIKTGYRLFDGAEDYANEKLVGAGVKKAIDEGIVKREDLFLTSKLWNNYHHPDNVEKALNRTLSDLQVDYVDLFLIHFPVTFKFVPLEEKYPPGFYCGKGDNFDYEDVPILETWKALEKLVKAGKIRSIGVSNFPGALLLDLLRGATIKPSVLQVEHHPYLQQPRLIEFAQSRGIAVTAYSSFGPQSFVELNQGRALNTSPLFENETIKAIAAKHGKSPAQVLLRWSSQRGIAIIPRSNTVPRLLENKDVNSFDLDEQDFADIAKLDINLRFNDPWDWDKIPIFV
notes: as for B1
With B3, the Km in series [4] was determined as 62.8 ± 18.7 µM; in series [5] it was 25.8 ± 9.1 µM.
